# Source: US20260109707A1, “HETEROBIFUNCTIONAL COMPOUNDS AND METHODS OF TREATING DISEASE” (Halda Therapeutics OpCo. Inc., priority 2022, published 2026)
# Key:
# [1] = Cellular growth inhibition assay, T-Rex 293 SC cells with doxycycline (CellTiter-Glo, 72 hours); assay type: cell-based; settings: T-Rex 293 SC cells with doxycycline (increased progesterone receptor isoform B)
# Method: (§1) The following types of cells were prepared for this experiment: (i) a T-Rex 293 cell line having increased expression of progesterone receptor isoform B protein due to exposure to doxycycline and (ii) a T-Rex 293 cell line lacking increased expression of progesterone receptor isoform B protein. Ability of the test compounds to inhibit proliferation of the foregoing cell types was evaluated according to the procedures set forth below.
# (§2) The doxycycline-inducible progesterone receptor isoform B protein expressing cell line was established using the following protocol: T-Rex 293 cells were purchased from Invitrogen (Cat #R71007) and transfected using Lipofectamine 2000 with the wild-type progesterone receptor B protein sequence cloned into the pcDNA4/TO vector. Transfected cells were selected using 400 μg/mL Zeocin (Invitrogen Cat #R25001). Following selection, single clones were raised and maintained in Dulbecco's Modified Eagle Medium (DMEM) supplemented with 10% w/w Tetracycline-free fetal bovine serum (FBS) and 250 μg/mL Zeocin. Clones were analyzed for expression of progesterone receptor isoform B protein in the presence and absence of 10 ng/mL doxycycline (Sigma Cat #D9891), and a single doxycycline-inducible clone (hereinafter “SC”) was selected for use in downstream assays.
# (§3) The SC cells were seeded on poly-D-lysine coated, black clear-bottom 384-well plates at 2500/well, in 25 μL Phenol Red Free Dulbecco's Modified Eagle Medium (DMEM) supplemented with 10% w/w charcoal-dextran treated fetal bovine serum (FBS) and 1% w/w pen-strep, with or without 10 ng/mL doxycycline. Pen-Strep is a commercially available mixture of penicillin G and streptomycin, which is used in mammalian cell culture media to prevent bacterial contamination. Phenol Red Free Dulbecco's Modified Eagle Medium (DMEM) supplemented with 10% w/w charcoal-dextran treated fetal bovine serum (FBS) and 1% w/w pen-strep, with or without 10 ng/mL doxycycline is herein referred to as Treatment Medium. Following seeding of cells in the plates, the plates were spun at 300×g for 30 seconds, then equilibrated to room temperature for 30 minutes, and then deposited in a humidified tissue culture incubator maintained at 37° C. with 5% CO2.
# (§4) At 24 hours after seeding of the cells, dilutions of test compound were prepared in DMSO and dissolved in Treatment Medium, to achieve a final DMSO concentration of 0.5% w/w, thereby providing the Test Compound Solution. A 25 μL aliquot of the Test Compound Solution was added to cells in the well plates. An equal volume of a solution containing DMSO and Treatment Medium was used as a negative control. Following treatment of cells with Test Compound Solution or said equal volume of a solution containing DMSO and Treatment Medium, the plates were spun at 300×g for 30 seconds, and then left in an incubator for 72 hours.
# (§5) At the end of the treatment duration, cell viability was quantified with CellTiter-Glo 2.0 reagent (Promega Cat #G9243). For this purpose, plates were equilibrated to room temperature for 30 minutes, and then 25 μL of CellTiter-Glo 2.0 reagent was added to cells in the plate wells. Plates were then agitated on a shaker for two minutes at 500 rpm and subsequently incubated at room temperature for 10 minutes. Following incubation, the plates were spun at 3000×g for 30 seconds, then sealed with an optical adhesive cover, and luminescence readings were measured with an EnVision Plate Reader (Perkin Elmer).
# (§6) Data was normalized using zero luminescence for baseline. A four-parameter non-linear regression curve fit was applied to dose-response data in GraphPad Prism data analysis software to determine the half-maximal growth inhibitory concentration (GI50) for each test compound.
# [2] = test system: T-Rex 293 cell line SC cells lacking increased expression of progesterone receptor isoform B protein; assay: Cellular growth inhibition assay, T-Rex 293 SC cells without doxycycline (CellTiter-Glo, 72 hours); assay type: cell-based; settings: T-Rex 293 SC cells not exposed to doxycycline
# Method: as §1, §2, §3, §4, §5, §6
# [3] = target: T1, androgen receptor (Homo sapiens, UniProt P10275); assay: Assay for binding affinity to androgen receptor ([3H]methyltrienolone radioligand, cell cytosol); settings: binding to the androgen receptor, Table 3
# T1 sequence (P10275 1-920 T878A): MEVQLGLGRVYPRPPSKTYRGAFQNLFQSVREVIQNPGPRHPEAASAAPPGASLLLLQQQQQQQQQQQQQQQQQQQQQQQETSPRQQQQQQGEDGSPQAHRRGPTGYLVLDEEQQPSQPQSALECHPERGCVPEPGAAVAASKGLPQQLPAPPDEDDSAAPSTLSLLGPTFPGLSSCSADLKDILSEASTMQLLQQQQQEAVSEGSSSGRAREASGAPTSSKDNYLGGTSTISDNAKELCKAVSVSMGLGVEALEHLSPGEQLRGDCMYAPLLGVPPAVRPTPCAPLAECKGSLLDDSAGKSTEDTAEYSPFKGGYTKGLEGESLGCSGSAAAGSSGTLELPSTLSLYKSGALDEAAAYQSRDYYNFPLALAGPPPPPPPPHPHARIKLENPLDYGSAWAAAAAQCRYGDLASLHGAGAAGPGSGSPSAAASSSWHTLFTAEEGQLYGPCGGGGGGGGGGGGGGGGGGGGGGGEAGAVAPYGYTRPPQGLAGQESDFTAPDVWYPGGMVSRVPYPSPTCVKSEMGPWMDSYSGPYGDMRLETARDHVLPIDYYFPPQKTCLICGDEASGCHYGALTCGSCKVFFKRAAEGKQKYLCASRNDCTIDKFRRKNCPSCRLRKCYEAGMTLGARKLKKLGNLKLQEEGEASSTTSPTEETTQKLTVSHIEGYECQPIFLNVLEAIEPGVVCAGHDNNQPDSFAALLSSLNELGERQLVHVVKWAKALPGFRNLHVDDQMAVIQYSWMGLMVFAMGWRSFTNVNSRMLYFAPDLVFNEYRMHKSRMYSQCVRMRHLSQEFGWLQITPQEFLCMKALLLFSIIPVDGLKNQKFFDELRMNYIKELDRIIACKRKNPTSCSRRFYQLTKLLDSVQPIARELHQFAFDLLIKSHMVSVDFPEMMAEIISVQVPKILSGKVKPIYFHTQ
# Method: Fractions of cell cytosol ([…]) were incubated for 24 hr at 4° C. with 1 nM [^3H]methyltrienolone in the absence or presence of the test compound in a buffer containing 25 mM Hepes-Tris (pH 7.4), 1 mM EDTA, 10 mM Na2MoO4, 2 mM DTT, 5 μM triamcinolone acetonide, and 10% glycerol. Nonspecific binding was determined in the presence of […] testosterone. Following incubation, the samples were filtered rapidly under vacuum through glass fiber filters (GF/B, Packard) presoaked with 0.3% PEI and rinsed several times with ice-cold 50 mM Tris-HCl using a 96-sample cell harvester (Unifilter, Packard). The filters were dried then counted for radioactivity in a scintillation counter (Topcount, Packard) using a scintillation cocktail (Microscint 0, Packard). The results are expressed as a percent inhibition of the control radioligand specific binding. The standard reference compound is testosterone, which is tested in each experiment at several concentrations to obtain a competition curve from which its IC50 is calculated.
Compound,Kd [3] [µM],GI50 [1] [µM],GI50 [2] [µM]
CCNC(=O)C[C@@H]1N=C(c2ccc(OCCOCCOC3CCN(c4ccc(C(=O)N[C@H]5CC[C@H](Oc6ccc(C#N)c(Cl)c6)CC5)nn4)CC3)cc2)c2c(sc(C)c2C)-n2c(C)nnc21 [I-10],< 0.05,< 0.5,< 0.5
CCNC(=O)C[C@@H]1N=C(c2ccc(CC3CCN(c4ccc(C(=O)N[C@H]5CC[C@H](Oc6ccc(C#N)c(Cl)c6)CC5)nn4)CC3)cc2)c2c(sc(C)c2C)-n2c(C)nnc21 [I-20],< 0.05,< 0.5,0.5 to 1.5
CCNC(=O)C[C@@H]1N=C(c2ccc(N3CC4(C3)CN(c3ccc(C(=O)N[C@H]5CC[C@H](Oc6ccc(C#N)c(Cl)c6)CC5)nn3)C4)cc2)c2c(sc(C)c2C)-n2c(C)nnc21 [I-24],< 0.05,< 0.5,0.5 to 1.5
CCNC(=O)C[C@@H]1N=C(c2ccc(OCC3CN(c4ccc(C(=O)N[C@H]5CC[C@H](Oc6ccc(C#N)c(Cl)c6)CC5)nn4)C3)cc2)c2c(sc(C)c2C)-n2c(C)nnc21 [I-29],< 0.05,,
CCNC(=O)C[C@@H]1N=C(c2ccc(N3CCC(OC4CCN(c5ccc(C(=O)N[C@H]6CC[C@H](Oc7ccc(C#N)c(Cl)c7)CC6)nn5)CC4)CC3)cc2)c2c(sc(C)c2C)-n2c(C)nnc21 [I-44],< 0.05,,
CCNC(=O)C[C@@H]1N=C(c2ccc(OCCCN(C)c3ccc(C(=O)N[C@H]4CC[C@H](Oc5ccc(C#N)c(Cl)c5)CC4)nn3)cc2)c2c(sc(C)c2C)-n2c(C)nnc21 [I-48],< 0.05,,

# The next lines start with results.
Kd [3] [µM],Compound,GI50 [1] [µM],GI50 [2] [µM]
< 0.05,"Cc1sc2c(c1C)C(c1ccc(Cl)cc1)=N[C@@H](CC(=O)NCCOC1CCN(c3ccc(C(=O)N[C@H]4CC[C@H](Oc5ccc(C#N)c(Cl)c5)CC4)nn3)CC1)c1nnc(C)n1-2 [I-1, N-[4-(3-chloro-4-cyano-phenoxy)cyclohexyl]-6-[4-[2-[[2-[(9S)-7-(4-chlorophenyl)-4,5,13-trimethyl-3-thia-1,8,11,12-tetrazatricyclo[8.3.0.0^2,6]trideca-2(6),4,7,10,12-pentaen-9-yl]acetyl]amino]ethoxy]-1-piperidyl]pyridazine-3-carboxamide]",< 0.5,< 0.5
< 0.05,"Cc1sc2c(c1C)C(c1ccc(Cl)cc1)=N[C@@H](CC(=O)NCCOCCOCCOC1CCN(c3ccc(C(=O)N[C@H]4CC[C@H](Oc5ccc(C#N)c(Cl)c5)CC4)nn3)CC1)c1nnc(C)n1-2 [I-2, N-[4-(3-chloro-4-cyano-phenoxy)cyclohexyl]-6-[4-[2-[2-[2-[[2-[(9S)-7-(4-chlorophenyl)-4,5,13-trimethyl-3-thia-1,8,11,12-tetrazatricyclo[8.3.0.0^2,6]trideca-2(6),4,7,10,12-pentaen-9-yl]acetyl]amino]ethoxy]ethoxy]ethoxy]-1-piperidyl]pyridazine-3-carboxamide]",< 0.5,> 3
< 0.05,CCNC(=O)C[C@@H]1N=C(c2ccc(OCCOC3CCN(c4ccc(C(=O)N[C@H]5CC[C@H](Oc6ccc(C#N)c(Cl)c6)CC5)nn4)CC3)cc2)c2c(sc(C)c2C)-n2c(C)nnc21 [I-8],< 0.5,< 0.5
